{"source": "patent US20130217085A1", "about": "“METHODS FOR IMPROVING FERMENTATION YIELD OF POLYUNSATURATED FATTY ACIDS” (NANJING UNIVERSITY OF TECHNOLOGY, priority 2010, published 2013)", "test_system": "Schizochytrium limacinum HX-308", "test": "Shake-flask fermentation of Schizochytrium limacinum HX-308 with exogenous compatible solute added to the fermentation medium (fatty acid composition, DHA yield, biomass)", "assay_type": "cell-based", "excerpt": "The detection method of the following Examples is the same as that in the application titled “Schizochytrium limacinum and method of production of DHA oil using the same” (Application No. 200910033869.5) The strain is Schizochytrium limacinum HX-308 with deposit number CCTCC No. M209059. Seed medium: D-glucose 40 g/L, yeast extract 2 g/L, sodium glutamate 10 g/L, MgCl2 3 g/L, CaCl2·2H2O 1 g/L, KH2PO4 4 g/L, KCl 2 g/L, NaCl 15 g/L, MgSO4·7H2O 5 g/L, FeCl3 0.1 g/L. (See “A Schizochytrium limacinum and method of production of DHA oil using the same” (Application No. 200910033869.5)). Fermentation medium: D-glucose 40 g/L, yeast extract 2 g/L, sodium glutamate 10 g/L, MgCl2 3 g/L, (NH4)2SO4 6 g/L, KH2PO4 4 g/L, KCl 2 g/L, NaCl 15 g/L, MgSO4·7H2O 5 g/L, FeCl3 0.1 g/L. (See “A Schizochytrium limacinum and method of production of DHA oil using the same” (Application No. 200910033869.5)). Cultural method: strain was inoculated into seed medium with inoculation amount of 5% (v/v), cultured in a 500 mL shake flask for 24 h to log phase under 170 r at 25° C., and inoculated into the fermentation medium with addition of a certain amount of glycine betaine (such as 10 mmol/L, 40 mmol/L, 70 mmol/L, 100 mmol/L) in inoculation amount of 9% (v/v) for culturing; fermentation ceased when glucose reached an amount of 0 g/L. The results are shown in Table 1. The strain is Schizochytrium limacinum HX-308 with deposit number CCTCC No. M209059. Seed medium: D-glucose 40 g/L, yeast extract 2 g/L, sodium glutamate 10 g/L, MgCl2 3 g/L, CaCl2·2H2O 1 g/L, KH2PO4 4 g/L, KCl 2 g/L, NaCl 15 g/L, MgSO4·7H2O 5 g/L, FeCl3 0.1 g/L. Fermentation medium: D-glucose 40 g/L, yeast extract 2 g/L, sodium glutamate 10 g/L, MgCl2 3 g/L, (NH4)2SO4 6 g/L, KH2PO4 4 g/L, KCl 2 g/L, NaCl 15 g/L, MgSO4·7H2O 5 g/L, FeCl3 0.1 g/L. Cultural method: the strain was inoculated into seed medium with inoculation amount of 5% (v/v), cultured in a 500 mL shake flask for 24 h to log phase under 170 r at 25° C., and inoculated into the fermentation medium with addition of a certain amount of trehalose (such as 10 mmol/L, 40 mmol/L, 80 mmol/L) in inoculation amount of 9% (v/v); fermentation ceased when glucose reached an amount of 0 g/L. The results are shown in Table 2.", "data": [{"molecule": "OC[C@H]1O[C@H](O[C@H]2O[C@H](CO)[C@@H](O)[C@H](O)[C@H]2O)[C@H](O)[C@@H](O)[C@@H]1O", "note": "[trehalose]", "values": [{"measurement": "increase of DHA yield", "setting": "appropriate amount of trehalose, versus no addition", "result": 92, "unit": "%"}, {"measurement": "DHA yield", "setting": "appropriate amount of trehalose, increased from 3.9 g/L", "result": 7.5, "unit": "g/L"}, {"measurement": "yield of total fatty acids", "setting": "appropriate amount of trehalose, increased from 8.8 g/L", "result": 16.7, "unit": "g/L"}, {"measurement": "ratio of DHA in total biomass", "setting": "appropriate amount of trehalose, increased from 57", "result": 99, "unit": "mg/g"}, {"measurement": "Biomass", "setting": "appropriate amount of trehalose, increased from 60 g/L", "result": 76, "unit": "g/L"}, {"measurement": "ARA (% total fatty acids)", "setting": "exogenous trehalose 10 mM", "result": 0.6, "unit": "% total fatty acids"}, {"measurement": "Biomass", "setting": "exogenous trehalose 10 mM", "result": 70, "unit": "g/L"}, {"measurement": "C14:0 (% total fatty acids)", "setting": "exogenous trehalose 10 mM", "result": 9.5, "unit": "% total fatty acids"}, {"measurement": "C16:0 (% total fatty acids)", "setting": "exogenous trehalose 10 mM", "result": 22.3, "unit": "% total fatty acids"}, {"measurement": "DHA (% total fatty acids)", "setting": "exogenous trehalose 10 mM", "result": 44.8, "unit": "% total fatty acids"}, {"measurement": "DHA (mg/g biomass)", "setting": "exogenous trehalose 10 mM", "result": 57.1, "unit": "mg/g biomass"}, {"measurement": "DHA yield", "setting": "exogenous trehalose 10 mM", "result": 4, "unit": "g/L"}, {"measurement": "DPA (% total fatty acids)", "setting": "exogenous trehalose 10 mM", "result": 12.3, "unit": "% total fatty acids"}, {"measurement": "EPA (% total fatty acids)", "setting": "exogenous trehalose 10 mM", "result": 1.6, "unit": "% total fatty acids"}, {"measurement": "Others (% total fatty acids)", "setting": "exogenous trehalose 10 mM", "result": 8.1, "unit": "% total fatty acids"}, {"measurement": "Squalene (% total fatty acids)", "setting": "exogenous trehalose 10 mM", "result": 0.8, "unit": "% total fatty acids"}, {"measurement": "Total fatty acid yield", "setting": "exogenous trehalose 10 mM", "result": 8.9, "unit": "g/L"}, {"measurement": "ARA (% total fatty acids)", "setting": "exogenous trehalose 40 mM", "result": 1.9, "unit": "% total fatty acids"}, {"measurement": "Biomass", "setting": "exogenous trehalose 40 mM", "result": 74, "unit": "g/L"}, {"measurement": "C14:0 (% total fatty acids)", "setting": "exogenous trehalose 40 mM", "result": 9.6, "unit": "% total fatty acids"}, {"measurement": "C16:0 (% total fatty acids)", "setting": "exogenous trehalose 40 mM", "result": 21.3, "unit": "% total fatty acids"}, {"measurement": "DHA (% total fatty acids)", "setting": "exogenous trehalose 40 mM", "result": 47.4, "unit": "% total fatty acids"}, {"measurement": "DHA (mg/g biomass)", "setting": "exogenous trehalose 40 mM", "result": 56.6, "unit": "mg/g biomass"}, {"measurement": "DHA yield", "setting": "exogenous trehalose 40 mM", "result": 4.2, "unit": "g/L"}, {"measurement": "DPA (% total fatty acids)", "setting": "exogenous trehalose 40 mM", "result": 12.6, "unit": "% total fatty acids"}, {"measurement": "EPA (% total fatty acids)", "setting": "exogenous trehalose 40 mM", "result": 1.8, "unit": "% total fatty acids"}, {"measurement": "Others (% total fatty acids)", "setting": "exogenous trehalose 40 mM", "result": 4.5, "unit": "% total fatty acids"}, {"measurement": "Squalene (% total fatty acids)", "setting": "exogenous trehalose 40 mM", "result": 0.9, "unit": "% total fatty acids"}, {"measurement": "Total fatty acid yield", "setting": "exogenous trehalose 40 mM", "result": 8.9, "unit": "g/L"}, {"measurement": "ARA (% total fatty acids)", "setting": "exogenous trehalose 80 mM", "result": 1.2, "unit": "% total fatty acids"}, {"measurement": "Biomass", "setting": "exogenous trehalose 80 mM", "result": 76, "unit": "g/L"}, {"measurement": "C14:0 (% total fatty acids)", "setting": "exogenous trehalose 80 mM", "result": 10.7, "unit": "% total fatty acids"}, {"measurement": "C16:0 (% total fatty acids)", "setting": "exogenous trehalose 80 mM", "result": 23.2, "unit": "% total fatty acids"}, {"measurement": "DHA (% total fatty acids)", "setting": "exogenous trehalose 80 mM", "result": 45, "unit": "% total fatty acids"}, {"measurement": "DHA (mg/g biomass)", "setting": "exogenous trehalose 80 mM", "result": 99.3, "unit": "mg/g biomass"}, {"measurement": "DHA yield", "setting": "exogenous trehalose 80 mM", "result": 7.5, "unit": "g/L"}, {"measurement": "DPA (% total fatty acids)", "setting": "exogenous trehalose 80 mM", "result": 12.2, "unit": "% total fatty acids"}, {"measurement": "EPA (% total fatty acids)", "setting": "exogenous trehalose 80 mM", "result": 1.3, "unit": "% total fatty acids"}, {"measurement": "Others (% total fatty acids)", "setting": "exogenous trehalose 80 mM", "result": 5.5, "unit": "% total fatty acids"}, {"measurement": "Squalene (% total fatty acids)", "setting": "exogenous trehalose 80 mM", "result": 0.9, "unit": "% total fatty acids"}, {"measurement": "Total fatty acid yield", "setting": "exogenous trehalose 80 mM", "result": 16.7, "unit": "g/L"}, {"measurement": "ARA (% total fatty acids)", "setting": "exogenous trehalose 160 mM", "result": 1.0, "unit": "% total fatty acids"}, {"measurement": "Biomass", "setting": "exogenous trehalose 160 mM", "result": 78, "unit": "g/L"}, {"measurement": "C14:0 (% total fatty acids)", "setting": "exogenous trehalose 160 mM", "result": 11.0, "unit": "% total fatty acids"}, {"measurement": "C16:0 (% total fatty acids)", "setting": "exogenous trehalose 160 mM", "result": 22.5, "unit": "% total fatty acids"}, {"measurement": "DHA (% total fatty acids)", "setting": "exogenous trehalose 160 mM", "result": 43.2, "unit": "% total fatty acids"}, {"measurement": "DHA (mg/g biomass)", "setting": "exogenous trehalose 160 mM", "result": 89.7, "unit": "mg/g biomass"}, {"measurement": "DHA yield", "setting": "exogenous trehalose 160 mM", "result": 7, "unit": "g/L"}, {"measurement": "DPA (% total fatty acids)", "setting": "exogenous trehalose 160 mM", "result": 12.1, "unit": "% total fatty acids"}, {"measurement": "EPA (% total fatty acids)", "setting": "exogenous trehalose 160 mM", "result": 1.4, "unit": "% total fatty acids"}, {"measurement": "Others (% total fatty acids)", "setting": "exogenous trehalose 160 mM", "result": 8.3, "unit": "% total fatty acids"}, {"measurement": "Squalene (% total fatty acids)", "setting": "exogenous trehalose 160 mM", "result": 0.5, "unit": "% total fatty acids"}, {"measurement": "Total fatty acid yield", "setting": "exogenous trehalose 160 mM", "result": 16.2, "unit": "g/L"}, {"measurement": "Biomass", "setting": "exogenous trehalose 200 mM", "result": 81, "unit": "g/L"}, {"measurement": "C14:0 (% total fatty acids)", "setting": "exogenous trehalose 200 mM", "result": 11.7, "unit": "% total fatty acids"}, {"measurement": "C16:0 (% total fatty acids)", "setting": "exogenous trehalose 200 mM", "result": 21.5, "unit": "% total fatty acids"}, {"measurement": "DHA (% total fatty acids)", "setting": "exogenous trehalose 200 mM", "result": 41.7, "unit": "% total fatty acids"}, {"measurement": "DHA (mg/g biomass)", "setting": "exogenous trehalose 200 mM", "result": 78, "unit": "mg/g biomass"}, {"measurement": "DHA yield", "setting": "exogenous trehalose 200 mM", "result": 6.3, "unit": "g/L"}, {"measurement": "DPA (% total fatty acids)", "setting": "exogenous trehalose 200 mM", "result": 11.5, "unit": "% total fatty acids"}, {"measurement": "EPA (% total fatty acids)", "setting": "exogenous trehalose 200 mM", "result": 1.4, "unit": "% total fatty acids"}, {"measurement": "Others (% total fatty acids)", "setting": "exogenous trehalose 200 mM", "result": 12.2, "unit": "% total fatty acids"}, {"measurement": "Total fatty acid yield", "setting": "exogenous trehalose 200 mM", "result": 15.1, "unit": "g/L"}, {"measurement": "ARA (% total fatty acids)", "setting": "exogenous trehalose 280 mM", "result": 1.0, "unit": "% total fatty acids"}, {"measurement": "Biomass", "setting": "exogenous trehalose 280 mM", "result": 76, "unit": "g/L"}, {"measurement": "C14:0 (% total fatty acids)", "setting": "exogenous trehalose 280 mM", "result": 11.1, "unit": "% total fatty acids"}, {"measurement": "C16:0 (% total fatty acids)", "setting": "exogenous trehalose 280 mM", "result": 22.7, "unit": "% total fatty acids"}, {"measurement": "DHA (% total fatty acids)", "setting": "exogenous trehalose 280 mM", "result": 39.1, "unit": "% total fatty acids"}, {"measurement": "DHA (mg/g biomass)", "setting": "exogenous trehalose 280 mM", "result": 29, "unit": "mg/g biomass"}, {"measurement": "DHA yield", "setting": "exogenous trehalose 280 mM", "result": 2.2, "unit": "g/L"}, {"measurement": "DPA (% total fatty acids)", "setting": "exogenous trehalose 280 mM", "result": 10.8, "unit": "% total fatty acids"}, {"measurement": "EPA (% total fatty acids)", "setting": "exogenous trehalose 280 mM", "result": 7.7, "unit": "% total fatty acids"}, {"measurement": "Others (% total fatty acids)", "setting": "exogenous trehalose 280 mM", "result": 7.6, "unit": "% total fatty acids"}, {"measurement": "Total fatty acid yield", "setting": "exogenous trehalose 280 mM", "result": 5.6, "unit": "g/L"}]}]}
